Measured values reported in patent publication US9447136B2, “Semisynthetic derivatives of Nystatin A1” (BLIRT S.A., priority 2012, dated 2016).
Values after ≈ are worked out from the molar mass of the structure shown.

Tests used:
[1] = system: Aspergillus niger LOCK E201; assay: Antifungal activity in vitro, serial dilution in RPMI 1640; type: cell-based; settings: Table 2B
In short: (§1)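 Growth (A531) plotted against compound concentration after serial dilution in RPMI 1640 buffered to pH 7.0, following the M27-A2 reference method. MIC: lowest concentration with A531 ≤20% of control; IC50: concentration interpolated at half control A531.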

[2] = system: Candida albicans ATCC 10231; assay: as above; type: cell-based; settings: for Antifungal activity Candida albicans ATCC 10231 IC50 / Antifungal activity Candida albicans ATCC 10231 MIC: Table 2A, RPMI 1640, pH 7.0; for Antifungal activity Candida albicans ATCC 10231 IC50: A531 50% of control; for Antifungal activity Candida albicans ATCC 10231 MIC: A531 at most 20% of control; for MIC Candida albicans ATCC 10231: Table 2B
In short: as §1

[3] = system: Candida arborea KKP 319; assay: as above; type: cell-based; settings: Table 2B
In short: as §1

[4] = system: Candida dubliniensis CBS 7987; assay: as above; type: cell-based; settings: Table 2B
In short: as §1

[5] = system: Candida glabrata DSM 11226; assay: as above; type: cell-based; settings: Table 2A; RPMI 1640, pH 7.0
In short: as §1

[6] = system: Candida krusei DSM 6128; assay: as above; type: cell-based; settings: Table 2A; RPMI 1640, pH 7.0
In short: as §1

[7] = system: Candida lipolytica KKP 322; assay: as above; type: cell-based; settings: Table 2B
In short: as §1

[8] = system: Candida parapsilosis DSM 5784; assay: as above; type: cell-based; settings: Table 2B
In short: as §1

[9] = system: Candida pseudotropicalis KKP 324; assay: as above; type: cell-based; settings: Table 2B
In short: as §1

[10] = system: Candida quilliermondii DSM 11947; assay: as above; type: cell-based; settings: Table 2B
In short: as §1

[11] = system: Candida stellatoidea CBS 1905; assay: as above; type: cell-based; settings: Table 2B
In short: as §1

[12] = system: Candida tropicalis KKP 334; assay: as above; type: cell-based; settings: Table 2A; RPMI 1640, pH 7.0
In short: as §1

[13] = system: Saccharomyces cerevisiae ATCC 9763; assay: as above; type: cell-based; settings: for Antifungal activity Saccharomyces cerevisiae ATCC 9763 MIC: Table 2A, RPMI 1640, pH 7.0, A531 at most 20% of control; for MIC Saccharomyces cerevisiae ATCC 9763: Table 2B
In short: as §1

[14] = system: Trichoderma viride LOCK E159; assay: as above; type: cell-based; settings: Table 2B
In short: as §1

[15] = system: Human erythrocytes; assay: Hemotoxicity (hemolytic activity)
In short: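 Human erythrocytes in saline (2×10^7/ml) were incubated with serially diluted compound at 37 °C for 30 min, then centrifuged. Released hemoglobin was read as A540 against 0.1% Triton X-100 as full hemolysis. EH50 is the interpolated concentration giving 50% of the control A540.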

[16] = system: Candida albicans 5674; assay: Antifungal activity towards resistant (MDR) strains; type: cell-based; settings: C. albicans 5674 overexpressing CDR1 and CDR2
Method: (§2) The determination of antifungal activity was performed by the serial dilutions method in buffered RPMI 1640 medium, in a 96-wells microplates, according to the standard procedure (National Committee for Clinical Laboratory Standards. Reference method for broth dilution antifungal susceptibility testing of yeast, approved standard, 2nd ed. M27-A2 vol. 22 Wayne, Pa., 2002). The optical density of cells suspension was measured using a microplates reader (Victor^3, Perkin-Elmer) at the wavelength λ=660 nm (A660). On the basis of received results the diagrams on interrelation between the A660 value and the concentration of tested compound were made. From these graphs MIC values were read, that are the concentrations of tested compounds, in the presence at which A660 value is at most 20% of A660 value measured in control sample.

[17] = system: Candida albicans B3; assay: as above; type: cell-based; settings: fluconazole sensitive, parent strain for B4
Method: as §2

[18] = system: Candida albicans B4; assay: as above; type: cell-based; settings: fluconazole-resistant due to the overexpression of CaMDR1
Method: as §2

[19] = system: Candida albicans F2; assay: as above; type: cell-based; settings: fluconazole sensitive, parent strain for F5
Method: as §2

[20] = system: Candida albicans F5; assay: as above; type: cell-based; settings: fluconazole-resistant due to the overexpression of CaMDR1 and ERG11
Method: as §2

[21] = system: Candida albicans Gu4; assay: as above; type: cell-based; settings: fluconazole sensitive, parent strain for Gu5
Method: as §2

[22] = system: Candida albicans Gu5; assay: as above; type: cell-based; settings: fluconazole-resistant due to the overexpression of CDR1 and CDR2
Method: as §2

[23] = system: Candida albicans STY19; assay: as above; type: cell-based; settings: 5674 mutant derivative, deletion of CDR1
Method: as §2

[24] = system: Candida albicans STY31; assay: as above; type: cell-based; settings: 5674 mutant derivative, deletion of CDR1 and CDR2
Method: as §2

[25] = system: Candida albicans STY7; assay: as above; type: cell-based; settings: 5674 mutant derivative, deletion of CDR2
Method: as §2

[26] = system: CCRF-CEM; assay: Cytotoxic activity against mammalian cells in tissue culture (MTT); type: cell-based, human
Method: (§3) For examinations were used selected cell lines: CCRF-CEM—human acute lymphoblastic leukemia; HepG2—human malignant hepatoma; LLC-PK1—epithelial cell of pig kidney; All lines were from ATCC collection.
(§4) The study are conducted using described below methods of culturing and determination of cytotoxic activity.
(§5) CCRF-CEM cells were cultured in medium RPMI 1640+10% fetal bovine serum (FBS), LLC-PK1 cells in medium Medium 199+3% FBS, HepG2 cells in medium MEM+10% FBS. All media contained 100 μg/ml of penicillin G and streptomycin. 24-wells microplates containing appropriate medium were inoculated with the cells in amount of 1.2×10^4 cells/well and allowed to stand overnight. Next, tested compounds as solution in dimethylsulfoxide (DMSO) were added in volume of 10 μl (serial 2× dilutions). To control well 10 μl of DMSO was added. Microplates with cell suspensions were incubated for 120 h at temperature 37° C. at atmosphere of 95%/5% CO2. After incubation, to all wells 200 μl of solution of 3-(4,5-dimethylthiazole-2-yl)-2,5-diphenylotetrazole bromide (MTT) in PBS (4 mg/ml) was added and plates were further incubated for 4 h at 37° C. Next, to dissolve crystals of formazane 1 ml of DMSO was added and absorption of solutions was measured at the wavelength λ=540 nm (A540), using a microplates reader (Victor^3, Perkin-Wallac). […] From these graphs IC50 values were read, that is concentration of tested compound in the presence at which A540 value is half of A540 value measured in the control sample.

[27] = system: HepG2; assay: as above; type: cell-based, human
Method: as §3, §4, §5

[28] = system: LLC-PK1; assay: as above; type: cell-based, pig
Method: as §3, §4, §5

Row | SMILES | MIC Aspergillus niger LOCK E201 [1] | Antifungal activity Candida albicans ATCC 10231 IC50 [2] | Antifungal activity Candida albicans ATCC 10231 MIC [2] | MIC Candida albicans ATCC 10231 [2] | MIC Candida arborea KKP 319 [3] | MIC Candida dubliniensis CBS 7987 [4] | Antifungal activity Candida glabrata DSM 11226 MIC [5] | Antifungal activity Candida krusei DSM 6128 MIC [6] | MIC Candida lipolytica KKP 322 [7] | MIC Candida parapsilosis DSM 5784 [8] | MIC Candida pseudotropicalis KKP 324 [9] | MIC Candida quilliermondii DSM 11947 [10] | MIC Candida stellatoidea CBS 1905 [11] | Antifungal activity Candida tropicalis KKP 334 MIC [12] | Antifungal activity Saccharomyces cerevisiae ATCC 9763 MIC [13] | MIC Saccharomyces cerevisiae ATCC 9763 [13] | MIC Trichoderma viride LOCK E159 [14] | MIC Candida albicans 5674 [16] | MIC Candida albicans B3 [17] | MIC Candida albicans B4 [18] | other results
1 | CCCN(CCC)[C@@H]1[C@H](O)[C@H](O[C@H]2/C=C/C=C/C=C/C=C/CC/C=C/C=C/[C@H](C)[C@@H](O)[C@@H](C)[C@H](C)OC(=O)C[C@H](O)C[C@H](O)C[C@H](O)CC[C@@H](O)[C@H](O)C[C@]3(O)C[C@H](O)[C@@H](C(=O)O)[C@H](C2)O3)O[C@H](C)[C@H]1O [Compound N22, N,N-di-n-propylnystatin A1] | 8 µg/mL (≈ 7.92 µM) | 3.14 µg/mL | 4 µg/mL | 4 µg/mL (≈ 3.96 µM) | 8 µg/mL (≈ 7.92 µM) | 2 µg/mL (≈ 1.98 µM) | 4 µg/mL | 8 µg/mL | 4 µg/mL (≈ 3.96 µM) | 8 µg/mL (≈ 7.92 µM) | 4 µg/mL (≈ 3.96 µM) | 8 µg/mL (≈ 7.92 µM) | 4 µg/mL (≈ 3.96 µM) | 4 µg/mL | 2 µg/mL | 2 µg/mL (≈ 1.98 µM) | 8 µg/mL (≈ 7.92 µM) | 4 µg/mL (≈ 3.96 µM) | 8 µg/mL (≈ 7.92 µM) | 8 µg/mL (≈ 7.92 µM) | EH10 [15]: 202.34 µg/mL; MIC Candida albicans F2 [19]: 4 µg/mL (≈ 3.96 µM); MIC Candida albicans F5 [20]: 4 µg/mL (≈ 3.96 µM); MIC Candida albicans Gu4 [21]: 8 µg/mL (≈ 7.92 µM); MIC Candida albicans Gu5 [22]: 8 µg/mL (≈ 7.92 µM); MIC Candida albicans STY19 [23]: 4 µg/mL (≈ 3.96 µM); MIC Candida albicans STY31 [24]: 4 µg/mL (≈ 3.96 µM); MIC Candida albicans STY7 [25]: 4 µg/mL (≈ 3.96 µM); Cytotoxicity IC50 CCRF-CEM [26]: >100 µg/mL; Cytotoxicity IC50 HepG2 [27]: 82.9 ± 19.87 µg/mL; Cytotoxicity IC50 LLC-PK1 [28]: >100 µg/mL
2 | CC1OC(O[C@H]2/C=C/C=C/C=C/C=C/CC/C=C/C=C/[C@H](C)[C@@H](O)[C@@H](C)[C@H](C)OC(=O)C[C@H](O)C[C@H](O)C[C@H](O)CC[C@@H](O)[C@H](O)CC3(O)C[C@H](O)[C@@H](C(=O)O)[C@H](C2)O3)C(O)C(NC(=O)[C@H](N)CCC(=O)OC(C)(C)C)C1O (stereo partly drawn) [Compound N37, N-D-(O-tert-butyl)glutamylnystatin A1] | 16 µg/mL (≈ 14.4 µM) | 2.73 µg/mL | 4 µg/mL | 4 µg/mL (≈ 3.6 µM) | 32 µg/mL (≈ 28.8 µM) | 8 µg/mL (≈ 7.2 µM) | 8 µg/mL | 8 µg/mL | 16 µg/mL (≈ 14.4 µM) | 16 µg/mL (≈ 14.4 µM) | 8 µg/mL (≈ 7.2 µM) | 16 µg/mL (≈ 14.4 µM) | 8 µg/mL (≈ 7.2 µM) | 4 µg/mL | 4 µg/mL | 4 µg/mL (≈ 3.6 µM) | 32 µg/mL (≈ 28.8 µM) | 32 µg/mL (≈ 28.8 µM) | 8 µg/mL (≈ 7.2 µM) | 8 µg/mL (≈ 7.2 µM) | % of hemolysis at the concentration 60 μg ml^−1 [15]: 0.04%; MIC Candida albicans F2 [19]: 16 µg/mL (≈ 14.4 µM); MIC Candida albicans F5 [20]: 16 µg/mL (≈ 14.4 µM); MIC Candida albicans Gu4 [21]: 8 µg/mL (≈ 7.2 µM); MIC Candida albicans Gu5 [22]: 8 µg/mL (≈ 7.2 µM); MIC Candida albicans STY19 [23]: 32 µg/mL (≈ 28.8 µM); MIC Candida albicans STY31 [24]: 32 µg/mL (≈ 28.8 µM); MIC Candida albicans STY7 [25]: 32 µg/mL (≈ 28.8 µM); Cytotoxicity IC50 CCRF-CEM [26]: >100 µg/mL; Cytotoxicity IC50 HepG2 [27]: >100 µg/mL; Cytotoxicity IC50 LLC-PK1 [28]: 85.5 ± 4.30 µg/mL
